The values that follow come from US5021549A, “Physiologically active substances, probestin and prostatin and production thereof” (priority 1987, dated 1991).

Structures are written as SMILES.

The test system of data set [1] is antibody-forming cells in spleen. Nature of the data set: Humoral antibody formation: plaque-forming cells in spleen of SRBC-immunized mice (Jerne's hemolytic plaque technique). In kind it is in vivo, CDF-mice. To be noted: for Number of PFC: counted 4 days after SRBC immunization; for T/C (%): PFC number versus control. The protocol:
CDF-mice were immunized by intravenous injection of 10^8 sheep red blood cells (SRBC). 1000 μg/mouse, 250 μg/mouse or 62.5 μg/mouse of probestin was administered by intraperitoneal injection into the mice at the time of the immunization with SRBC (0 hour) and then totally three times, namely 24, 48 and 72 hours after the immunization. Four days after the immunization with SRBC, the number of the plaque-forming cell (PFC) (namely, the antibody-forming cells) in spleen was enumerated by the known Jerne's hemolytic plaque technique [Jerne, N.K; A. A. Nordin & C. Henry; "The agar plaque technique for recognizing antibody-producing cells in cell-bound antibodies" pp. 109-122 published by Wister Institute press, Philadelphia (1963)].

Data set [2] relates to mice. Nature of the data set: Acute toxicity by intravenous injection in mice. In kind it is in vivo.
The nature of data set [3]: Solubility in solvents. In kind it is physicochemical. To be noted: water and organic solvents.
Data set [4] concerns the target Aminopeptidase-A (Homo sapiens, UniProt Q07075). Nature of the data set: Inhibition of aminopeptidase-A.
The target of data set [5] is Aminopeptidase-B (Homo sapiens, UniProt Q9H4A4). Put plainly: Inhibition of aminopeptidase-B.
Chain of Aminopeptidase-B (Q9H4A4 whole entry): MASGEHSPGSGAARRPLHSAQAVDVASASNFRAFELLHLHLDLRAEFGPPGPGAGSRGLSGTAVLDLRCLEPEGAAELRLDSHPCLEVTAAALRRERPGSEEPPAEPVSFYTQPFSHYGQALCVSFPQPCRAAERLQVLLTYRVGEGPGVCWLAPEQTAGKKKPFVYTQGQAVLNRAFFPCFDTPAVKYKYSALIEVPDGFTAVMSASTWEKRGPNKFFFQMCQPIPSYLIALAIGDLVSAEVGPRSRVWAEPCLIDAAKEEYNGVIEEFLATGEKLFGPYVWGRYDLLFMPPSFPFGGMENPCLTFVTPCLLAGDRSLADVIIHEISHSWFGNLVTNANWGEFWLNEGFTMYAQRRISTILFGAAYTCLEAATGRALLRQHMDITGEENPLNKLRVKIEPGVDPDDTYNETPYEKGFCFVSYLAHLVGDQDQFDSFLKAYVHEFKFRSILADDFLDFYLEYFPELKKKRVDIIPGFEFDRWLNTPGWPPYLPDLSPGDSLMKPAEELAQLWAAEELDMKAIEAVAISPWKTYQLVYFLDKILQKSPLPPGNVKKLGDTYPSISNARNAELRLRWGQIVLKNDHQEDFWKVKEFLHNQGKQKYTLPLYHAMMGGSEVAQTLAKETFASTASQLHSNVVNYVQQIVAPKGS
The target of data set [6] is Leucine-aminopeptidase (Homo sapiens, UniProt P28838). Nature of the data set: Inhibition of leucine-aminopeptidase.
Chain of Leucine-aminopeptidase (P28838 whole entry): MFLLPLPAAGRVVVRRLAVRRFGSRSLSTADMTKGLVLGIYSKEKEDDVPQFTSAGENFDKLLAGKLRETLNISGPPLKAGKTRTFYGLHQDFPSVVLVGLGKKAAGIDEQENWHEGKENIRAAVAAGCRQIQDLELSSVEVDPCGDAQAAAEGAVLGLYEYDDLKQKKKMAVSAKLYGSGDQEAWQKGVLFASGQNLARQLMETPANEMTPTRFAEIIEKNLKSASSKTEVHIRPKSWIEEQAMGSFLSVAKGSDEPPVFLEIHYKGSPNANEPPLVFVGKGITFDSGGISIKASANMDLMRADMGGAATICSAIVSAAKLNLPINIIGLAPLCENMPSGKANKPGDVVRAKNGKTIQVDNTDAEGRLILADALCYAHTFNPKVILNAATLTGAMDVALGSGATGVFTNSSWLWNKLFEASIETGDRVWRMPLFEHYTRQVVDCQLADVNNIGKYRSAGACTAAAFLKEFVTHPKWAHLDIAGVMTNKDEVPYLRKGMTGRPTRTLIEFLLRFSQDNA
For data set [7], the target named is T1, aminopeptidase M (Sus scrofa, UniProt P15145).
T1 construct: purchased Boehringer Mannheim Company
T1 sequence (P15145 1-963): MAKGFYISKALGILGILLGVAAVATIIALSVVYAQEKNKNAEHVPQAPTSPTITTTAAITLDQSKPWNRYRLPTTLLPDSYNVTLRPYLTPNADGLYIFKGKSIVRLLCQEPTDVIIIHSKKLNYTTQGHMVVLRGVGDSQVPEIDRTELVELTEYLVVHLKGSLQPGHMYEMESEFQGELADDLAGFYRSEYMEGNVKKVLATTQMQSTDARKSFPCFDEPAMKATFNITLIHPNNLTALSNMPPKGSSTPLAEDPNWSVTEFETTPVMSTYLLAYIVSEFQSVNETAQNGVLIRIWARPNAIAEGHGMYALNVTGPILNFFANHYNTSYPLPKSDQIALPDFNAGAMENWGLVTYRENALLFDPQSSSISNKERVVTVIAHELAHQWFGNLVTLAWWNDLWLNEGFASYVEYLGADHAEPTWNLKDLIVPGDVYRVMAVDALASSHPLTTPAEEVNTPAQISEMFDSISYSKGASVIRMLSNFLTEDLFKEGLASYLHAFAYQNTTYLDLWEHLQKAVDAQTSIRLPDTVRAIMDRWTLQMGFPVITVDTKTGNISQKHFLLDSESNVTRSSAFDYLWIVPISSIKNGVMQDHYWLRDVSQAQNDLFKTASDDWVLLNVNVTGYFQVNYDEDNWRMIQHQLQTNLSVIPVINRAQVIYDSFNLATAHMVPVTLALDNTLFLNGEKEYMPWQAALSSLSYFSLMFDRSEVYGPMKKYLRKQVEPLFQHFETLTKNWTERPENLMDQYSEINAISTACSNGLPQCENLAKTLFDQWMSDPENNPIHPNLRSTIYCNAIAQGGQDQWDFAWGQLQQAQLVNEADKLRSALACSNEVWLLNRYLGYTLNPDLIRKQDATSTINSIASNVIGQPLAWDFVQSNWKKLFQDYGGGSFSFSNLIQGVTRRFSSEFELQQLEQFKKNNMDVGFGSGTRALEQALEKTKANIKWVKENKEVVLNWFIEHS
Nature of the data set: Inhibition of aminopeptidase M (L-leucine-β-naphthylamide substrate). In kind it is biochemical. To be noted: read-out: Value of IC50 against Aminopeptidase M (converted).
Description: The mixture solution obtained is heated at 37° C. for 3 minutes. To the heated solution is added 0.05 ml of an aqueous solution of aminopeptidase M (a product of Boehringer Mannheim Company; 4 units/mg). The resulting mixture is incubated for 30 minutes at 37° C. for the enzymatic reaction and the resultant reaction mixture is admixed with 1 ml of 1.0 M acetate buffered solution (pH 4.2) containing 10% of a surfectant "Tween" 20 and 0.1% of Fast Garnet GBC (0-aminoazotoluene, diazonium salt) to stop the enzymatic reaction. After allowing the resulting mixture to stand at ambient temperature for 15 minutes, the absorbance of light at 525 nm of the resultant reaction solution is measured, with designating the measured value as value (a). […] The rate (%) of inhibition to the aminopeptidase M is calculated from an equation [(b-a)/b]×100.

Chain of Aminopeptidase-A (Q07075 whole entry): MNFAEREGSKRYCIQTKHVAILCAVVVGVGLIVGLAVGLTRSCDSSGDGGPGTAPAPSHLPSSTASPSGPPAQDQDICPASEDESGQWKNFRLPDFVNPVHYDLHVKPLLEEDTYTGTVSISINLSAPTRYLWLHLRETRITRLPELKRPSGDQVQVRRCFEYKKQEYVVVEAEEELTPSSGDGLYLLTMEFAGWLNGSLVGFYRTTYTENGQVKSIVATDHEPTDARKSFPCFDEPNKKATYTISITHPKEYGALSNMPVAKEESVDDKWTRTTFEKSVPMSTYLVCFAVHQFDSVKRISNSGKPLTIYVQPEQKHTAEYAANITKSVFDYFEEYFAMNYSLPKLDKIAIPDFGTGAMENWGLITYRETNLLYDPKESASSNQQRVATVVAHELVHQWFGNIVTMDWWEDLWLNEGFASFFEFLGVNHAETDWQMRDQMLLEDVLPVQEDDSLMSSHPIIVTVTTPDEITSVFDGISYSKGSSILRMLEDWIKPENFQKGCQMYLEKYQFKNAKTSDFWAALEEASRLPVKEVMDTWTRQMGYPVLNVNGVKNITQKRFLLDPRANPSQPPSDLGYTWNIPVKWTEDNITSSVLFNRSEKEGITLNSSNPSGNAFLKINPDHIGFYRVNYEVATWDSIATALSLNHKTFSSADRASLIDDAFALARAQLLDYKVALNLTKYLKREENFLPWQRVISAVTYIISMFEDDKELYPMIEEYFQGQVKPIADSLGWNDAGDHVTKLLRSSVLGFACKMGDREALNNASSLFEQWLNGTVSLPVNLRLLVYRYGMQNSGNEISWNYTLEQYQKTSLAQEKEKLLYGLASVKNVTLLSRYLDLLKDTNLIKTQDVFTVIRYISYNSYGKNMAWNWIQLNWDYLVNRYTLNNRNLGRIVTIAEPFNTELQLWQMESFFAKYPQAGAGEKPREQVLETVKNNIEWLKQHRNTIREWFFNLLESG

With `CC(C)C[C@H](NC(=O)[C@@H](O)[C@H](N)Cc1ccccc1)C(=O)N1CCC[C@H]1C(=O)N1CCC[C@H]1C(=O)O` [Probestin], the “Number of PFC” value in data set [1] (62.5 μg/mouse ip. at 0, 24, 48, 72 h) was 492.540 ± 69.980 × 10^3 /spleen; in data set [1] (250 μg/mouse ip. at 0, 24, 48, 72 h), 631.680 ± 69.560 × 10^3 /spleen; in data set [1] (1000 μg/mouse ip. at 0, 24, 48, 72 h) it was 891.900 ± 162.610 × 10^3 /spleen. Also, the “T/C (%)” value in data set [1] (62.5 μg/mouse ip.) is 212.1%; in data set [1] (250 μg/mouse ip.) it was 271.8%; in data set [1] (1000 μg/mouse ip.), 384.1%. For the same compound, the “Effect on number of antibody-forming cells in spleen (in words)” value in data set [1] (intraperitoneal injection, SRBC-immunized mice, probestin 1000 μg to 62.5 μg/mouse) is “increased number of the antibody-forming cells in the spleen”. Also, the LD50 entry in data set [2] is “greater than 250 mg/kg”. Moreover, the Solubility entry in data set [3] is “Readily soluble in water, methanol and dimethyl-sulfoxide, but insoluble in acetone, ethyl acetate, chloroform and hexane”. Moreover, the “Value of IC50 against Aminopeptidase-A” value in data set [4] is over 100 µg/mL. Also, the “Value of IC50 against Aminopeptidase-B” value in data set [5] came out at 36.7 µg/mL. Also, the “Value of IC50 against Leucine-aminopeptidase” value in data set [6] is 0.091 µg/mL.

For `CCCCC[C@H](CC(=O)NO)C(=O)N[C@H](C(=O)N1CCC[C@H]1CO)C(C)C` [Actinonin, actinonin, reference compound], the half-inhibitory concentration (IC50) in data set [7] was 1.04 µM; in data set [4], over 259 µM; in data set [6], 2.59 µM.

As usually defined, the IC50 is the concentration that inhibits the measured activity by half.
